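96-well plates; 48 h exposure; 5 concentrations. Endpoints by linear interpolation between flanking doses. Not reached: highest tested concentration assigned. GI50: concentration for 50% inhibition of growth. TGI marks complete inhibition of growth.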
Tests used:
Assay in all cases: NCI anticancer screen, dose series, 48 h
786-0 renal = tested on: 786-0 renal
A498 renal = tested on: A498 renal
A549 NSCLC = tested on: A549 NSCLC
ACHN renal = tested on: ACHN renal
BT-549 breast = tested on: BT-549 breast
CAKI-1 renal = tested on: CAKI-1 renal
COLO 205 colon = tested on: COLO 205 colon
DU-145 prostate = tested on: DU-145 prostate
EKVX NSCLC = tested on: EKVX NSCLC
HCC-2998 colon = tested on: HCC-2998 colon
HCT-116 colon = tested on: HCT-116 colon
HCT-15 colon = tested on: HCT-15 colon
HL-60(TB) leukemia = tested on: HL-60(TB) leukemia
HOP-62 NSCLC = tested on: HOP-62 NSCLC
HOP-92 NSCLC = tested on: HOP-92 NSCLC
HS 578T breast = tested on: HS 578T breast
HT29 colon = tested on: HT29 colon
K-562 leukemia = tested on: K-562 leukemia
KM12 colon = tested on: KM12 colon
LOX IMVI melanoma = tested on: LOX IMVI melanoma
M14 melanoma = tested on: M14 melanoma
MALME-3M melanoma = tested on: MALME-3M melanoma
MCF7 breast = tested on: MCF7 breast
MDA-MB-231 breast = tested on: MDA-MB-231 breast
MDA-MB-435 = tested on: MDA-MB-435
MOLT-4 leukemia = tested on: MOLT-4 leukemia
NCI-H226 lung = tested on: NCI-H226 lung
NCI-H23 lung = tested on: NCI-H23 lung
NCI-H460 lung = tested on: NCI-H460 lung
NCI-H522 lung = tested on: NCI-H522 lung
NCI/ADR-RES ovarian = tested on: NCI/ADR-RES ovarian
OVCAR-3 ovarian = tested on: OVCAR-3 ovarian
OVCAR-4 ovarian = tested on: OVCAR-4 ovarian
OVCAR-5 ovarian = tested on: OVCAR-5 ovarian
OVCAR-8 ovarian = tested on: OVCAR-8 ovarian
PC-3 prostate = tested on: PC-3 prostate
RPMI-8226 leukemia = tested on: RPMI-8226 leukemia
RXF 393 renal = tested on: RXF 393 renal
SF-268 CNS = tested on: SF-268 CNS
SF-295 CNS = tested on: SF-295 CNS
SF-539 CNS = tested on: SF-539 CNS
SK-MEL-2 melanoma = tested on: SK-MEL-2 melanoma
SK-MEL-28 melanoma = tested on: SK-MEL-28 melanoma
SK-MEL-5 melanoma = tested on: SK-MEL-5 melanoma
SK-OV-3 ovarian = tested on: SK-OV-3 ovarian
SN12C renal = tested on: SN12C renal
SNB-19 CNS = tested on: SNB-19 CNS
SNB-75 CNS = tested on: SNB-75 CNS
SR leukemia = tested on: SR leukemia
SW-620 colon = tested on: SW-620 colon
T-47D breast = tested on: T-47D breast
TK-10 renal = tested on: TK-10 renal
U251 CNS = tested on: U251 CNS
UACC-257 melanoma = tested on: UACC-257 melanoma
UACC-62 melanoma = tested on: UACC-62 melanoma
UO-31 renal = tested on: UO-31 renal

CC(=O)O[C@H]1CCC2(C)C(=CCC3C2CCC2(C)/C(=N/OC(=O)c4ccc(N(CCCl)CCCl)cc4)CCC32)C1 (some centres not stated)
GI50 (786-0 renal): 4.21 µM
TGI (786-0 renal): > 100 µM
GI50 (A498 renal): 3.52 µM
TGI (A498 renal): > 62.8 µM
GI50 (A549 NSCLC): 2.45 µM
TGI (A549 NSCLC): 8.37 µM
GI50 (ACHN renal): 5.19 µM
TGI (ACHN renal): > 100 µM
GI50 (BT-549 breast): 8.67 µM
TGI (BT-549 breast): > 100 µM
GI50 (CAKI-1 renal): 3.88 µM
TGI (CAKI-1 renal): > 100 µM
GI50 (COLO 205 colon): > 100 µM
TGI (COLO 205 colon): > 100 µM
GI50 (DU-145 prostate): > 89.1 µM
TGI (DU-145 prostate): > 100 µM
GI50 (EKVX NSCLC): 8.78 µM
TGI (EKVX NSCLC): > 100 µM
GI50 (HCC-2998 colon): > 55.5 µM
TGI (HCC-2998 colon): > 100 µM
GI50 (HCT-116 colon): 2.34 µM
TGI (HCT-116 colon): > 100 µM
GI50 (HCT-15 colon): 8.87 µM
TGI (HCT-15 colon): > 100 µM
GI50 (HL-60(TB) leukemia): 7.01 µM
TGI (HL-60(TB) leukemia): > 100 µM
GI50 (HOP-62 NSCLC): 4.42 µM
TGI (HOP-62 NSCLC): 24.9 µM
GI50 (HOP-92 NSCLC): 13.8 µM
TGI (HOP-92 NSCLC): > 100 µM
GI50 (HS 578T breast): 2.41 µM
TGI (HS 578T breast): 13.5 µM
GI50 (HT29 colon): 4.92 µM
TGI (HT29 colon): > 100 µM
GI50 (K-562 leukemia): 3.9 µM
TGI (K-562 leukemia): > 100 µM
GI50 (KM12 colon): 7.13 µM
TGI (KM12 colon): > 100 µM
GI50 (LOX IMVI melanoma): 2.6 µM
TGI (LOX IMVI melanoma): > 100 µM
GI50 (M14 melanoma): 20.3 µM
TGI (M14 melanoma): > 100 µM
GI50 (MALME-3M melanoma): > 65.4 µM
TGI (MALME-3M melanoma): > 100 µM
GI50 (MCF7 breast): 12.7 µM
TGI (MCF7 breast): > 100 µM
GI50 (MDA-MB-231 breast): 4.46 µM
TGI (MDA-MB-231 breast): > 100 µM
GI50 (MDA-MB-435): 10.8 µM
TGI (MDA-MB-435): > 100 µM
GI50 (MOLT-4 leukemia): 4.91 µM
TGI (MOLT-4 leukemia): > 100 µM
GI50 (NCI-H226 lung): > 45.3 µM
TGI (NCI-H226 lung): > 100 µM
GI50 (NCI-H23 lung): 6 µM
TGI (NCI-H23 lung): > 100 µM
GI50 (NCI-H460 lung): 4.65 µM
TGI (NCI-H460 lung): > 100 µM
GI50 (NCI-H522 lung): 4.88 µM
TGI (NCI-H522 lung): > 82.8 µM
GI50 (NCI/ADR-RES ovarian): 5.73 µM
TGI (NCI/ADR-RES ovarian): > 100 µM
GI50 (OVCAR-3 ovarian): 9.84 µM
TGI (OVCAR-3 ovarian): > 100 µM
GI50 (OVCAR-4 ovarian): 7.78 µM
TGI (OVCAR-4 ovarian): > 100 µM
GI50 (OVCAR-5 ovarian): > 72.8 µM
TGI (OVCAR-5 ovarian): > 100 µM
GI50 (OVCAR-8 ovarian): 4.02 µM
TGI (OVCAR-8 ovarian): > 100 µM
GI50 (PC-3 prostate): 7.99 µM
TGI (PC-3 prostate): > 100 µM
GI50 (RPMI-8226 leukemia): 5.68 µM
TGI (RPMI-8226 leukemia): > 100 µM
GI50 (RXF 393 renal): 3.05 µM
TGI (RXF 393 renal): 45.9 µM
GI50 (SF-268 CNS): 2.55 µM
TGI (SF-268 CNS): 7.71 µM
GI50 (SF-295 CNS): 3.84 µM
TGI (SF-295 CNS): > 58 µM
GI50 (SF-539 CNS): 6.89 µM
TGI (SF-539 CNS): > 100 µM
GI50 (SK-MEL-2 melanoma): 32.4 µM
TGI (SK-MEL-2 melanoma): > 100 µM
GI50 (SK-MEL-28 melanoma): > 100 µM
TGI (SK-MEL-28 melanoma): > 100 µM
GI50 (SK-MEL-5 melanoma): 20.4 µM
TGI (SK-MEL-5 melanoma): > 100 µM
GI50 (SK-OV-3 ovarian): > 100 µM
TGI (SK-OV-3 ovarian): > 100 µM
GI50 (SN12C renal): 5.48 µM
TGI (SN12C renal): > 100 µM
GI50 (SNB-19 CNS): 3.16 µM
TGI (SNB-19 CNS): 98.2 µM
GI50 (SNB-75 CNS): 4.47 µM
TGI (SNB-75 CNS): 42.7 µM
GI50 (SR leukemia): 1.4 µM
TGI (SR leukemia): 5.98 µM
GI50 (SW-620 colon): > 100 µM
TGI (SW-620 colon): > 100 µM
GI50 (T-47D breast): 4.02 µM
TGI (T-47D breast): > 100 µM
GI50 (TK-10 renal): 8.71 µM
TGI (TK-10 renal): > 73.6 µM
GI50 (U251 CNS): 1.88 µM
TGI (U251 CNS): > 28.8 µM
GI50 (UACC-257 melanoma): > 100 µM
TGI (UACC-257 melanoma): > 100 µM
GI50 (UACC-62 melanoma): 7.86 µM
TGI (UACC-62 melanoma): > 100 µM
GI50 (UO-31 renal): 1.99 µM
TGI (UO-31 renal): > 20.8 µM

— PubChem BioAssay (NCI)
